Source: ChEMBL document CHEMBL2146473 (Bioorg Med Chem, 2012)
Calls of active or inactive are those of the source. The calls are words filed in the database; no cut-off is given here.

Legend:
Dipeptidyl peptidase 4 = Dipeptidyl peptidase 4 (Rattus norvegicus, UniProt P14740); type: cell-free, Plasma
Description: Inhibition of DPP4 in rat plasma using GLY-Pro-MCA as substrate after 60 mins by fluorescence assay

Rattus norvegicus [1] = species on record: Rattus norvegicus; test: animal or person; type: functional; settings: Wistar, Plasma, po, 0.5 h
Rattus norvegicus [2] = species on record: Rattus norvegicus; test: animal or person; type: functional; settings: Wistar, Plasma, po, 9 h
[3] = AUC (0 to infinity) in monkey at 1 mg/kg, po; type: ADME, organism-based, Macaca mulatta; set-up: time infinity, dose 1 mg/kg, route oral; settings: rhesus monkey, plasma
[4] = Oral bioavailability in rat at 0.1 mg/kg; type: ADME, organism-based; settings: in vivo
[5] = AUC (0 to infinity) in monkey at 0.1 mg/kg, po; type: ADME, organism-based, Macaca mulatta; set-up: time infinity, dose 0.1 mg/kg, route oral; settings: rhesus monkey, plasma
[6] = AUC (0 to infinity) in monkey at 0.3 mg/kg, po; type: ADME, organism-based, Macaca mulatta; set-up: time infinity, dose 0.3 mg/kg, route oral; settings: rhesus monkey, plasma
[7] = AUC (0 to infinity) in rat at 1 mg/kg, po; type: ADME, organism-based; set-up: time infinity, dose 1 mg/kg, route oral; settings: plasma
[8] = Tmax in rat at 0.1 mg/kg, po; type: ADME, organism-based; set-up: dose 0.1 mg/kg, route oral; settings: in vivo
[9] = Tmax in rat at 0.3 mg/kg, po; type: ADME, organism-based; set-up: dose 0.3 mg/kg, route oral; settings: in vivo
[10] = Tmax in rat at 1 mg/kg, po; type: ADME, organism-based; set-up: dose 1 mg/kg, route oral; settings: in vivo
[11] = Tmax in monkey at 0.1 mg/kg, po; type: ADME, organism-based, Macaca mulatta; set-up: dose 0.1 mg/kg, route oral; settings: rhesus monkey, in vivo
[12] = Tmax in monkey at 0.3 mg/kg, po; type: ADME, organism-based, Macaca mulatta; set-up: dose 0.3 mg/kg, route oral; settings: rhesus monkey, in vivo
[13] = Tmax in monkey at 1 mg/kg, po; type: ADME, organism-based, Macaca mulatta; set-up: dose 1 mg/kg, route oral; settings: rhesus monkey, in vivo
[14] = Cmax in rat at 0.1 mg/kg, po; type: ADME, organism-based; set-up: dose 0.1 mg/kg, route oral; settings: in vivo
[15] = Cmax in rat at 0.3 mg/kg, po; type: ADME, organism-based; set-up: dose 0.3 mg/kg, route oral; settings: in vivo
[16] = Cmax in rat at 1 mg/kg, po; type: ADME, organism-based; set-up: dose 1 mg/kg, route oral; settings: in vivo
[17] = Cmax in monkey at 0.1 mg/kg, po; type: ADME, organism-based, Macaca mulatta; set-up: dose 0.1 mg/kg, route oral; settings: rhesus monkey, in vivo
[18] = Cmax in monkey at 0.3 mg/kg, po; type: ADME, organism-based, Macaca mulatta; set-up: dose 0.3 mg/kg, route oral; settings: rhesus monkey, in vivo
[19] = Cmax in monkey at 1 mg/kg, po; type: ADME, organism-based, Macaca mulatta; set-up: dose 1 mg/kg, route oral; settings: rhesus monkey, in vivo
[20] = Terminal half life in rat at 0.1 mg/kg, po; type: ADME, organism-based; set-up: dose 0.1 mg/kg, route oral; settings: in vivo, read-out: beta t1/2 (converted)
[21] = Terminal half life in rat at 0.3 mg/kg, po; type: ADME, organism-based; set-up: dose 0.3 mg/kg, route oral; settings: in vivo, read-out: beta t1/2 (converted)
[22] = Terminal half life in rat at 1 mg/kg, po; type: ADME, organism-based; set-up: dose 1 mg/kg, route oral; settings: in vivo, read-out: beta t1/2 (converted)
[23] = Terminal half life in monkey at 0.1 mg/kg, po; type: ADME, organism-based, Macaca mulatta; set-up: dose 0.1 mg/kg, route oral; settings: rhesus monkey, in vivo, read-out: beta t1/2 (converted)
[24] = Terminal half life in monkey at 0.3 mg/kg, po; type: ADME, organism-based, Macaca mulatta; set-up: dose 0.3 mg/kg, route oral; settings: rhesus monkey, in vivo, read-out: beta t1/2 (converted)
[25] = Terminal half life in monkey at 1 mg/kg, po; type: ADME, organism-based, Macaca mulatta; set-up: dose 1 mg/kg, route oral; settings: rhesus monkey, in vivo, read-out: beta t1/2 (converted)
[26] = AUC (0 to infinity) in rat at 0.1 mg/kg, po; type: ADME, organism-based; set-up: dose 0.1 mg/kg, route oral, time infinity; settings: plasma
[27] = AUC (0 to infinity) in rat at 0.3 mg/kg, po; type: ADME, organism-based; set-up: time infinity, dose 0.3 mg/kg, route oral; settings: plasma
[28] = Oral bioavailability in rat at 0.3 mg/kg; type: ADME, organism-based; settings: in vivo
[29] = Oral bioavailability in rat at 1 mg/kg; type: ADME, organism-based; settings: in vivo
[30] = Oral bioavailability in monkey at 0.1 mg/kg; type: ADME, organism-based, Macaca mulatta; settings: rhesus monkey, in vivo
[31] = Oral bioavailability in monkey at 0.3 mg/kg; type: ADME, organism-based, Macaca mulatta; settings: rhesus monkey, in vivo
[32] = Oral bioavailability in monkey at 1 mg/kg; type: ADME, organism-based, Macaca mulatta; settings: rhesus monkey, in vivo
Rattus norvegicus [33] = test: Antidiabetic activity in Zucker fatty rat assessed as decrease in plasma glucose excursion at 0.03 to 1 mg/kg, po administered 30 mins prior to glucose challenge by oral glucose tolerance test; type: functional, organism-based
Rattus norvegicus [34] = test: Antidiabetic activity in Zucker fatty rat assessed as decrease in AUC (0 to 60 mins) of plasma glucose level at 0.03 to 1 mg/kg, po administered 30 mins prior to glucose challenge by oral glucose tolerance test; type: functional, organism-based
Rattus norvegicus [35] = test: Antidiabetic activity in Zucker fatty rat assessed as normalization of glucose excursion at 0.03 mg/kg, po administered 30 mins prior to glucose challenge by oral glucose tolerance test relative to lean-control; type: functional, organism-based; set-up: dose 0.03 mg/kg
Rattus norvegicus [36] = test: Inhibition of DPP4 in po dosed Wistar rat plasma using GLY-Pro-MCA as substrate after 48 hrs by fluorescence assay; type: functional, organism-based
Rattus norvegicus [37] = test: Sustained inhibition of DPP4 in Wistar rat plasma using GLY-Pro-MCA as substrate at 1 mg/kg, po measured up to 24 hrs by fluorescence assay; type: functional, organism-based; set-up: dose 1 mg/kg

Sequence of Dipeptidyl peptidase 4 (P14740 whole entry): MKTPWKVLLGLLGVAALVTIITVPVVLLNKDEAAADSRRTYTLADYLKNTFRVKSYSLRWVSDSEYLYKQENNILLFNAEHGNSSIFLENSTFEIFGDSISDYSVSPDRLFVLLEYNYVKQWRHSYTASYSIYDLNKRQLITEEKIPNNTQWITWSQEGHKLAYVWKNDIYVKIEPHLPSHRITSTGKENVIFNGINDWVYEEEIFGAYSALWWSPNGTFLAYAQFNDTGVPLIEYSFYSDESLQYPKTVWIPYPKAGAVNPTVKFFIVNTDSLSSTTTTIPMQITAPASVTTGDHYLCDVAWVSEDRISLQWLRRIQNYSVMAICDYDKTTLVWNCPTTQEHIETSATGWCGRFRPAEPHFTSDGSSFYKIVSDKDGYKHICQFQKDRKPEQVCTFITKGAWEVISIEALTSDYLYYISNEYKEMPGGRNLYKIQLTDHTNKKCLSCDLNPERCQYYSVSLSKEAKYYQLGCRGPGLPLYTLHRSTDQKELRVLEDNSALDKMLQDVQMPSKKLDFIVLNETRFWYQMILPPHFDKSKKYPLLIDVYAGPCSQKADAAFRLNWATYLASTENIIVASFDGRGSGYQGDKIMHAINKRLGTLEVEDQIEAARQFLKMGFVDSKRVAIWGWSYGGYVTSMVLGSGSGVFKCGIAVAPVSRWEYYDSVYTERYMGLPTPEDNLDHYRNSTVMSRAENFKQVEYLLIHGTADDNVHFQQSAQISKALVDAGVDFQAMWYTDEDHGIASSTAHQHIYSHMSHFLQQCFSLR

Cc1cc(N2CCN([C@@H]3CN[C@H](C(=O)N4CCSC4)C3)CC2)n(-c2ccc(C#N)cn2)n1
IC50 (Dipeptidyl peptidase 4): 14 nM

O=C([C@@H]1C[C@H](N2CCN(c3ccccn3)CC2)CN1)N1CCSC1
inhibition in vivo at 3 µmol/kg (Rattus norvegicus [1]): 62.7%
inhibition in vivo at 3 µmol/kg (Rattus norvegicus [2]): 19.7%

O=C([C@@H]1C[C@H](N2CCN(c3ccnn3-c3ccccc3)CC2)CN1)N1CCSC1
IC50 (Dipeptidyl peptidase 4): 0.69 nM
inhibition in vivo at 3 µmol/kg (Rattus norvegicus [1]): 90.6%
inhibition in vivo at 3 µmol/kg (Rattus norvegicus [2]): 50.8%

Cc1cc(N2CCN([C@@H]3CN[C@H](C(=O)N4CCSC4)C3)CC2)n(-c2cccnc2)n1
IC50 (Dipeptidyl peptidase 4): 0.77 nM
inhibition in vivo at 3 µmol/kg (Rattus norvegicus [1]): 66.9%
inhibition in vivo at 3 µmol/kg (Rattus norvegicus [2]): 40.8%

O=C([C@@H]1C[C@H](N2CCC(c3nnnn3-c3ccccc3)CC2)CN1)N1CCSC1
IC50 (Dipeptidyl peptidase 4): 2.9 nM

Cc1cc(N2CCN([C@@H]3CN[C@H](C(=O)N4CCSC4)C3)CC2)n(-c2ccccn2)n1
inhibition in vivo at 3 µmol/kg (Rattus norvegicus [1]): 83%
inhibition in vivo at 3 µmol/kg (Rattus norvegicus [2]): 53.7%

O=C([C@@H]1C[C@H](N2CCN(c3ccnc4ccccc34)CC2)CN1)N1CCSC1
inhibition in vivo at 3 µmol/kg (Rattus norvegicus [1]): 29.7%
inhibition in vivo at 3 µmol/kg (Rattus norvegicus [2]): 12.9%

O=C([C@@H]1C[C@H](N2CCC(c3cc(C(F)(F)F)nn3-c3ccccc3)CC2)CN1)N1CCSC1
IC50 (Dipeptidyl peptidase 4): 2.5 nM

O=C([C@@H]1C[C@H](N2CCN(c3cc(C(F)(F)F)nn3-c3ccccc3)CC2)CN1)N1CCSC1
inhibition in vivo at 3 µmol/kg (Rattus norvegicus [1]): 87.4%
inhibition in vivo at 3 µmol/kg (Rattus norvegicus [2]): 81.8%

Cc1cc(N2CCN([C@@H]3CN[C@H](C(=O)N4CCSC4)C3)CC2)n(-c2cccc(F)c2)n1
IC50 (Dipeptidyl peptidase 4): 0.49 nM
inhibition in vivo at 3 µmol/kg (Rattus norvegicus [1]): 96.1%
inhibition in vivo at 3 µmol/kg (Rattus norvegicus [2]): 75.1%

O=C([C@@H]1C[C@H](N2CCN(c3nnnn3C3CCCCC3)CC2)CN1)N1CCSC1
IC50 (Dipeptidyl peptidase 4): 3.1 nM
inhibition in vivo at 3 µmol/kg (Rattus norvegicus [1]): 25.6%
inhibition in vivo at 3 µmol/kg (Rattus norvegicus [2]): 10.5%

Cc1cc(N2CCN([C@@H]3CN[C@H](C(=O)N4CCSC4)C3)CC2)n(-c2ccccc2F)n1
IC50 (Dipeptidyl peptidase 4): 0.53 nM
inhibition in vivo at 3 µmol/kg (Rattus norvegicus [1]): 75.9%
inhibition in vivo at 3 µmol/kg (Rattus norvegicus [2]): 34.7%

Br.Cc1cc(N2CCN([C@@H]3CN[C@H](C(=O)N4CCSC4)C3)CC2)n(-c2ccccc2)n1
AUC(0-inf) [3]: 1570 ng·h/mL
bioavailability [4]: 85.9%
AUC(0-inf) [5]: 295 ng·h/mL
AUC(0-inf) [6]: 613 ng·h/mL
AUC(0-inf) [7]: 673 ng·h/mL
Tmax [8]: 52.8 min
Tmax [9]: 45 min
Tmax [10]: 45 min
Tmax [11]: 30 min
Tmax [12]: 1.38 h
Tmax [13]: 52.8 min
Cmax [14]: 5.48 ng/mL
Cmax [15]: 20.6 ng/mL
Cmax [16]: 152 ng/mL
Cmax [17]: 28.3 ng/mL
Cmax [18]: 85.1 ng/mL
Cmax [19]: 274 ng/mL
half-life [20]: 950 min
half-life [21]: 538 min
half-life [22]: 506 min
half-life [23]: 1130 min
half-life [24]: 914 min
half-life [25]: 967 min
AUC(0-inf) [26]: 91.8 ng·h/mL
AUC(0-inf) [27]: 202 ng·h/mL
bioavailability [28]: 63%
bioavailability [29]: 62.9%
bioavailability [30]: 83.2%
bioavailability [31]: 57.6%
bioavailability [32]: 44.1%

Cc1cc(N2CCN([C@@H]3CN[C@H](C(=O)N4CCSC4)C3)CC2)n(-c2ccc(Cl)cc2)n1
IC50 (Dipeptidyl peptidase 4): 2.9 nM

Cc1cc(N2CCN([C@@H]3CN[C@H](C(=O)N4CCSC4)C3)CC2)n(-c2ccc(C#N)cc2)n1
IC50 (Dipeptidyl peptidase 4): 13 nM

O=C([C@@H]1C[C@H](N2CCN(c3nc(-c4ccccc4)cs3)CC2)CN1)N1CCSC1
IC50 (Dipeptidyl peptidase 4): 5.4 nM

Cc1cc(N2CCN([C@@H]3CN[C@H](C(=O)N4CCSC4)C3)CC2)n(-c2ccc(F)cc2)n1
IC50 (Dipeptidyl peptidase 4): 2.3 nM

Cc1cc(N2CCN([C@@H]3CN[C@H](C(=O)N4CCSC4)C3)CC2)n(-c2ccccc2)n1 [TENELIGLIPTIN]
inhibition in vivo at 3 µmol/kg (Rattus norvegicus [1]): 94.8%
inhibition in vivo at 3 µmol/kg (Rattus norvegicus [2]): 78.3%

Cc1cc(N2CCN([C@@H]3CN[C@H](C(=O)N4CCSC4)C3)CC2)n(-c2ccccc2)n1
Activity (Rattus norvegicus [33]): Active
Activity (Rattus norvegicus [34]): Active
Activity (Rattus norvegicus [35]): Active
inhibition (Rattus norvegicus [36]): Dose-dependent effect
inhibition (Rattus norvegicus [37]): Active

O=C([C@@H]1C[C@H](N2CCN(c3nnnn3-c3ccccc3)CC2)CN1)N1CCSC1
IC50 (Dipeptidyl peptidase 4): 0.18 nM
inhibition in vivo at 3 µmol/kg (Rattus norvegicus [1]): 85.1%
inhibition in vivo at 3 µmol/kg (Rattus norvegicus [2]): 70.7%

Cc1cc(N2CCN([C@@H]3CN[C@H](C(=O)N4CCSC4)C3)CC2)n(-c2ccncc2)n1
IC50 (Dipeptidyl peptidase 4): 4.7 nM

O=C([C@@H]1C[C@H](N2CCN(c3nccn3-c3ccccc3)CC2)CN1)N1CCSC1
IC50 (Dipeptidyl peptidase 4): 0.19 nM
inhibition in vivo at 3 µmol/kg (Rattus norvegicus [1]): 59.3%
inhibition in vivo at 3 µmol/kg (Rattus norvegicus [2]): 58%
